Nine compounds from patent US20120015399A1, “FLUORESCENT SOLVATOCHROMIC PIGMENT” (National University Corporation Hokkaido University, priority 2009, published 2012) can be followed below.

Molecules are shown by their SMILES.

Data set [1] in a line: Fluorescence spectra of thiophene derivatives in solvents of different polarity. The data set is classed as physicochemical. The procedure:
(§1) In the present Example, the thiophene derivatives (Compounds 3 to 6) obtained in Synthesis Examples 1 and 2 were dissolved in a variety of solvents with different polarity, and the absorption and the fluorescent spectra were measured.
Next, fluorescence spectra of the thiophene derivatives were measured. The fluorescence spectra were measured using the same samples used for the absorption spectra and using a fluorescence spectrophotometer (F-4500 manufactured by Hitachi Ltd.)
The numbers in the table indicate compound numbers.

A short description of data set [2]: Absorption spectra of thiophene derivatives in solvents of different polarity. The data set is classed as physicochemical. The conditions noted are these: for Molar absorption coefficient: at maximum absorption wavelength. The procedure: as §1
Now, the solvent polarity ET(30) (kcal/mole) was obtained by dissolving the betaine dye of the following formula that is a light absorbing solvatochromic dye in each solvent and incorporating the maximum absorption wavelength, λ (nm), into the equation ET(30)=28591/λ.
The thiophene derivative solutions were prepared by using a standard solvent for spectral measurement (Wako Pure Chemical Industries, Ltd.) in concentrations of from […] to 1.2×10^−5M, and absorptions were measured with a visible/ultraviolet spectrophotometer (V-560 UV/VIS Spectrophotometer manufactured by JASCO Corporation). The maximum absorption wavelength (nm) is shown in Table 2, and the molar absorption coefficient (mol^−1cm^−1) at the maximum absorption wavelength is shown in Table 3. The numbers in the tables indicate compound numbers.

A short description of data set [3]: Fluorescence colour in aqueous synthetic detergent solutions of different pH. The data set is classed as physicochemical. The settings on record: blue light 450 nm. Here is the method: In the present Example, Compound 6 was dissolved in aqueous synthetic detergent solutions having different pH values and the fluorescence was measured.
Compound 6 (0.1 g each) obtained in Synthesis Example 2 was placed in three test tubes, and 10 ml each of deionized water and one drop of weakly acidic “Biore” (liquid detergent of Kao Corporation), “COOP K Soft” (liquid detergent of Cope Green K.K.) or “My Pet” (liquid detergent of Kao Corporation) were added. Aqueous solutions of Compound 6 were obtained by dissolving the compound using ultrasonic irradiation. The solutions were irradiated with blue light (450 nm) using a full color LED flash light (MFL 143-FB manufactured by Anteya Technology Corporation). The fluorescent color observed was orange in a weakly acidic environment (pH=5), red in a neutral environment […] and crimson in a weakly alkaline environment (pH=8).

The test system of data set [4] is human colon cancer cell T84. In words: Staining of cultured cells, confocal laser fluorescence microscopy. The data set is classed as cell-based. The procedure:
In the present Example, Compound 7 was introduced into cultured human colon cancer cell T84 and its image was observed using a fluorescence microscope.
Human colon cancer cell T84 culture (cell stock-microbial stock-gene bank (ATCC) number CCL-248, supplied by Summit Pharmaceuticals International Corporation) in a sub-confluent state that had been cultured (37° C., 5% CO2) for two to four days in a glass bottom dish (35 mm, Matsunami Glass Ind., Ltd.) was washed with phosphoric acid buffered physiological saline solution. One hundred microliters of a DMSO solution of 2×10^−5 M of Compound 7 was added dropwise near the cells, and a reaction was allowed to occur for five minutes at room temperature. The cells were washed again using phosphoric acid buffered physiological saline solution and were immediately exposed to an argon laser (488 nm) to reach an excited state in the phosphoric acid buffered physiological saline solution. The response was observed using a confocal laser microscope (LSM510META manufactured by Carl Zeiss).
In the present Comparative Example, the compound shown below described in Reference 3 (Japanese Patent Application Public Disclosure No. 2008-291210) was used in place of Compound 7, and the fluorescence microscope images of the cultured human colon cancer cell T84 were examined in the manner described in Example 5.

Data set [5] has as its system macrophage cells (RAW264). Description: Staining of macrophage cells, confocal laser fluorescence microscopy. Type of data set: cell-based. The settings on record: stain solution in calf serum/D-MEM 1:9, fifteen minutes, 37° C., argon laser 488 nm, FIG. 9. Here is the method:
In the present Example, macrophage cells were stained using the pyridinium derivatives shown in Table 1 and the differences in cell staining were compared in order to investigate the effects of the alkyl chain lengths in R^7 and R^8.
Several micrograms of each pyridinium derivative (Compounds 10 and 21 to 23) were added to 10 milliliters of a liquid medium obtained by mixing calf serum and D-MEM base medium in a 1:9 ratio. The mixtures were left standing in a refrigerator overnight to dissolve the solids. 5 milliliters of the supernatant solutions were removed the next day and were used as cell staining solutions after filtering the solutions through sterilizing membrane filters with a pore diameter of […] p.m.
The macrophage cells (RAW264 of ATCC Co., Ltd.) were floated in HydroCell dishes manufactured by Cell Seed Co., Ltd. using a liquid culture obtained by mixing calf serum and D-MEM base medium in a 1:9 ratio.
The media were removed from the glass bottom dishes on which the RAW264 cells were supported, and 0.2 ml of each stain solution was added. The cells were stained by leaving the dish standing for fifteen minutes in a CO2 incubator at 37° C. The stain solutions were subsequently removed, and the media were exchanged three times using a liquid medium obtained by mixing calf serum and D-MEM base medium in 1:9 ratio. […] The results are shown in terms of fluorescence microscopic images (FIG. 9).

[6] abbreviates: 1,4-Dioxane, solvent polarity ET(30) 36.0.
The mark [7] stands for this setting: Acetone, solvent polarity ET(30) 42.2.
The mark [8] stands for this setting: DMSO, solvent polarity ET(30) 45.1.
[9] abbreviates: Comparative Example 1, blue diode laser 405 nm, FIG. 11.

For `CCCCCCN(CCCCCC)c1ccc(-c2ccc(-c3ccncc3)s2)cc1` [Compound 3, N,N-dihexyl-4-[5-(pyridine-4-yl)thiophene-2-yl]aniline], the “Maximum fluorescence emission wavelength” value in data set [1] (1,4-Dioxane, ET(30) 36.0) was found to be 467 nm; in data set [1] (Acetone, ET(30) 42.2), 507 nm; in data set [1] (DMSO, ET(30) 45.1), 522 nm. In addition, the Maximum absorption wavelength was 389 nm in data set [2] (setting [6]), 391 nm in data set [2] (setting [7]) and 401 nm in data set [2] (setting [8]). Also, the Molar absorption coefficient is 31,000 mol^−1cm^−1 in data set [2] (1,4-Dioxane, ET(30) 36.0); 33,000 mol^−1cm^−1 in data set [2] (Acetone, ET(30) 42.2); 32,000 mol^−1cm^−1 in data set [2] (DMSO, ET(30) 45.1).

`CCCCCCN(CCCCCC)c1ccc(-c2ccc(-c3ccccn3)s2)cc1` [Compound 4, N,N-dihexyl-4-[5-(pyridine-2-yl)thiophene-2-yl]aniline]: the “Maximum fluorescence emission wavelength” value amounted to 459 nm in data set [1] (1,4-Dioxane, ET(30) 36.0); 488 nm in data set [1] (Acetone, ET(30) 42.2); 507 nm in data set [1] (DMSO, ET(30) 45.1). Also, the Maximum absorption wavelength in data set [2] (setting [6]) is 387 nm; in data set [2] (setting [7]) it was 385 nm; in data set [2] (setting [8]) it was 395 nm. In addition, the Molar absorption coefficient in data set [2] (1,4-Dioxane, ET(30) 36.0) is listed as 33,000 mol^−1cm^−1; in data set [2] (Acetone, ET(30) 42.2), 33,000 mol^−1cm^−1; in data set [2] (DMSO, ET(30) 45.1) it was 31,000 mol^−1cm^−1.

For the compound `CCCCCCN(CCCCCC)c1ccc(-c2ccc(-c3ncccn3)s2)cc1` [Compound 5, N,N-dihexyl-4-[5-(pyrimidine-2-yl)thiophene-2-yl]aniline], the “Maximum fluorescence emission wavelength” value was found to be 472 nm in data set [1] (1,4-Dioxane, ET(30) 36.0); 507 nm in data set [1] (Acetone, ET(30) 42.2); 522 nm in data set [1] (DMSO, ET(30) 45.1). The figures for the Maximum absorption wavelength in data set [2] (setting [6]), in data set [2] (setting [7]) and in data set [2] (setting [8]) were 395 nm, 395 nm and 406 nm, respectively. In addition, the Molar absorption coefficient is on record as 33,000 mol^−1cm^−1 in data set [2] (1,4-Dioxane, ET(30) 36.0); 33,000 mol^−1cm^−1 in data set [2] (Acetone, ET(30) 42.2); 31,000 mol^−1cm^−1 in data set [2] (DMSO, ET(30) 45.1).

For `CCCCCCN(CCCCCC)c1ccc(-c2ccc(-c3cc[n+](C)cc3)s2)cc1.[I-]` [Compound 6, 4-[5-(4-dihexylamino)phenyl]thiophene-2-yl-1-methylpyridinium iodide], the “Maximum fluorescence emission wavelength” value is given as 568 nm in data set [1] (1,4-Dioxane, ET(30) 36.0); 639 nm in data set [1] (Acetone, ET(30) 42.2); 653 nm in data set [1] (DMSO, ET(30) 45.1). In addition, in data set [1] (versus Compounds 3 to 5), the “Absorption and emission wavelengths, compared” value was “significantly longer absorption and emission wavelengths than Compounds 3 to 5”. Besides, the “Excitation by commonly encountered argon lasers (488 nm)” value in data set [2] was “could be efficiently excited”. Moreover, the Maximum absorption wavelength in data set [2] (setting [6]) came to 490 nm; in data set [2] (setting [7]), 501 nm; in data set [2] (setting [8]), 497 nm. Moreover, the Molar absorption coefficient was 26,000 mol^−1cm^−1 in data set [2] (1,4-Dioxane, ET(30) 36.0); 36,000 mol^−1cm^−1 in data set [2] (Acetone, ET(30) 42.2); 36,000 mol^−1cm^−1 in data set [2] (DMSO, ET(30) 45.1). Further, the values for the Fluorescent color observed entry in data set [3] (neutral environment (pH=6)), in data set [3] (weakly acidic environment (pH=5)) and in data set [3] (weakly alkaline environment (pH=8)) were “red”, “orange” and “crimson”, respectively.

In the case of `CCCCCCN(CCCCCC)c1ccc(-c2ccc(-c3cc[n+](C)cc3)s2)cc1.F[B-](F)(F)F` [Compound 7, 4-[5-(4-dihexylamino)phenyl]thiophene-2-yl-1-methylpyridinium tetrafluoroborate], the Cell staining result in data set [4] (2×10^−5 M in DMSO, five minutes, room temperature, argon laser 488 nm, FIG. 7) is recorded as “cell membranes of colon cancer cells T84 are stained”. In addition, the Laser caused fading entry in data set [4] (confocal laser microscope, conditions of the experiment) is reported as “did not undergo laser caused fading”.

As to `CCN(CC)c1ccc(-c2ccc(-c3cc[n+](C)cc3)s2)cc1.O=S(=O)([O-])C(F)(F)F` [Compound 21], in data set [5], the Cell staining pattern result is “Entire cells were stained with fluorescence”.

Take `CCCCN(CCCC)c1ccc(-c2ccc(-c3cc[n+](C)cc3)s2)cc1.O=S(=O)([O-])C(F)(F)F` [Compound 22, 4-[5-(4-dibutylamino)phenyl]thiophene-2-O-1-methylpyridinium trifluoromethane sulfonate]: the Cell staining pattern entry in data set [5] is “the cell membrane and mitochondria were selectively stained”.

For `CCCCCCCCN(CCCCCCCC)c1ccc(-c2ccc(-c3cc[n+](C)cc3)s2)cc1.O=S(=O)([O-])C(F)(F)F` [Compound 23], the Cell staining pattern entry in data set [5] is “the entire cell was stained with fluorescence but the fluorescence intensity was low and the stain was not even”.

Regarding `CN(C)c1ccc(-c2ccc(-c3ccc(S(=O)(=O)OCC(C)(C)C)cc3)s2)cc1` [reference compound], in data set [4] (setting [9]), the Cell staining result is reported as “the cell membrane was selectively labeled with fluorescence” and the “Change of fluorescence wavelength between cell sections” value was “remained almost unchanged”.
